The target in one assay is T1, CYP1A2 (Homo sapiens, UniProt P05177).
T1 construct: 0.1 mg/mL protein human liver microsomes (BD Gentest); tissue BD Gentest; host or cells: human liver microsomes
T1 sequence (P05177 1-516): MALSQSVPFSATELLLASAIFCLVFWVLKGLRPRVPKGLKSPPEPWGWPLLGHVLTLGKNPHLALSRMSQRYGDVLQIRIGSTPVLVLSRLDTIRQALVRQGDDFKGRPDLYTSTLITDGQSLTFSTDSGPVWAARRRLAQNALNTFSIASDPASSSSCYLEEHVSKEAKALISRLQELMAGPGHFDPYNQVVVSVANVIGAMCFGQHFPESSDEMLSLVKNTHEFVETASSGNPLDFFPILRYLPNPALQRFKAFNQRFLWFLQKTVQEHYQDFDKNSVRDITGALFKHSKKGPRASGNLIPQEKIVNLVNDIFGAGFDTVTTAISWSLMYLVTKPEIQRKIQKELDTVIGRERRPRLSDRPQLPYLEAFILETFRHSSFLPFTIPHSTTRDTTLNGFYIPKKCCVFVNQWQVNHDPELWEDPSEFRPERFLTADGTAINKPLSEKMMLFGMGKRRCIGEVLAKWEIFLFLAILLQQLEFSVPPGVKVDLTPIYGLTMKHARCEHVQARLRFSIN
Briefly: Cocktail assay for CYPs in human liver microsomes, phenacetin O-deethylation (1A2). The following applies: 10 μM phenacetin, 10 min at 37° C. Format: biochemical. The method in brief:
(§1)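 Pooled human liver microsomes (0.1 mg/mL) with substrate cocktail (10 μM phenacetin, 5 μM diclofenac, 30 μM mephenytoin, 5 μM dextromethorphan), 1 mM NADPH, pH 7.4 phosphate, 10 min at 37 °C. Metabolites by LC/MS/MS; IC50 from % inhibition at 6 concentrations up to 10 μM.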
On the technique in general: Liver microsomes are a subcellular fraction often used to study metabolism.

Another assay concerns the target T2, CYP2C9 (Homo sapiens, UniProt P11712).
T2 construct: 0.1 mg/mL protein human liver microsomes (BD Gentest); tissue BD Gentest; host or cells: human liver microsomes
The assay can be described thus: Cocktail assay for CYPs in human liver microsomes, diclofenac 4′-hydroxylation (2C9). Format: biochemical. The following applies: 5 μM diclofenac, 10 min at 37° C. The method in brief: as §1

A further assay addresses T3, CYP3A4 (Homo sapiens, UniProt P08684).
T3 construct: 0.1 mg/mL protein human liver microsomes (BD Gentest); tissue BD Gentest; host or cells: human liver microsomes
Briefly: Cocktail assay for CYPs in human liver microsomes, midazolam 1′-hydroxylation (3A4). The assay is classed as biochemical. The following applies: 2 μM midazolam, 10 min at 37° C. An outline of the steps:
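CYP3A4 inhibition was measured in human liver microsomes (0.1 mg/mL protein) with 2 μM midazolam as the probe substrate, 1 mM NAPDH, 3.3 mM MgCl2 and 100 mM potassium phosphate buffer (pH 7.4), incubated 10 min at 37° C. After acetonitrile treatment, metabolite was quantified by LC/MS/MS against a tolbutamide internal standard. Percent inhibition at 6 concentrations gave IC50 by SigmaPlot non-linear regression.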

In the next assay the target is T4, human CYP11B1 (Homo sapiens, UniProt P15538).
T4 construct: expressed in transfected cells
T4 sequence (P15538 25-503): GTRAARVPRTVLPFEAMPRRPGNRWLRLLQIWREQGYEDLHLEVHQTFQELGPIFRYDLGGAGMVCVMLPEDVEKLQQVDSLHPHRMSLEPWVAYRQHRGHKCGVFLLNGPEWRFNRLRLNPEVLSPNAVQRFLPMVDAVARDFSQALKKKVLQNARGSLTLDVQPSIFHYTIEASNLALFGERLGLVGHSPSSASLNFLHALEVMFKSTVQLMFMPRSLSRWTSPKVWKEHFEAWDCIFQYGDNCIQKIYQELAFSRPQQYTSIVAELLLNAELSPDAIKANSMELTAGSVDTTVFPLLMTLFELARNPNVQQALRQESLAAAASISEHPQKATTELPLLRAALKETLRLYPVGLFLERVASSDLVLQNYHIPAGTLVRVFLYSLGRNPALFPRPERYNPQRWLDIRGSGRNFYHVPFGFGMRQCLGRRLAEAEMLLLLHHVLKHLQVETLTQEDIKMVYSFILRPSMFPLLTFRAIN
The assay can be described thus: IC50 vs CYP11B1 by measurement of cortisol synthesis in V79 cells. The following applies: V79 cells expressing human CYP11B1, 1500 nM RSS, cortisol HTRF. The assay is classed as cell-based. An outline of the steps:
(§2)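 V79 cells stably expressing CYP11B1 or CYP11B2 were treated with test compound at 10 concentrations (e.g. 10000 down to 0.5 nM), with 1500 nM RSS (CYP11B1) or 750 nM DOC (CYP11B2) as substrate. After ~15 h at RT in the dark, supernatant cortisol/aldosterone was measured by HTRF and back-calculated from a standard curve. IC50 was taken as the inflection point of a four-parameter fit.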
In general terms: Time-resolved FRET reads energy transfer from a long-lived donor to a nearby acceptor.

In another assay the target is T5, human CYP11B2 (Homo sapiens, UniProt P19099).
T5 construct: expressed in transfected cells
T5 sequence (P19099 25-503): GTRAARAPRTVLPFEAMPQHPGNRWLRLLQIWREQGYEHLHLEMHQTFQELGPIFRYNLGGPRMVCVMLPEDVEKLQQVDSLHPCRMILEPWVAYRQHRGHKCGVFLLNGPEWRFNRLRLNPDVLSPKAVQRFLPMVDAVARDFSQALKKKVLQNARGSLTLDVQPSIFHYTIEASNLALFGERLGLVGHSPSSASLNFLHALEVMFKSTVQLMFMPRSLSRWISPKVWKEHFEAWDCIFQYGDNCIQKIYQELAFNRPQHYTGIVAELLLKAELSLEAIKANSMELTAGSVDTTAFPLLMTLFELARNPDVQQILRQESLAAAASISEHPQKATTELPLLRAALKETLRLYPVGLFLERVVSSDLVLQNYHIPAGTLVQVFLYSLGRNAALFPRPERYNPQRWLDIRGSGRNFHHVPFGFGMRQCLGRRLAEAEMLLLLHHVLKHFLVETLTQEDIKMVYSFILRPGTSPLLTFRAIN
Briefly: IC50 vs CYP11B2 by measurement of aldosterone synthesis in V79 cells. Format: cell-based. The following applies: V79 cells expressing human CYP11B2, 750 nM DOC, aldosterone HTRF. The method in brief:
as §2

A further assay has as its target T6, CYP2C19 (Homo sapiens, UniProt P33261).
T6 construct: 0.1 mg/mL protein human liver microsomes (BD Gentest); tissue BD Gentest; host or cells: human liver microsomes
Briefly: Cocktail assay for CYPs in human liver microsomes, mephenytoin 4′-hydroxylation (2C19). Format: biochemical. The following applies: 30 μM mephenytoin, 10 min at 37° C. The method in brief: as §1

In a further assay the target is T7, CYP2D6 (Homo sapiens, UniProt P10635).
T7 construct: 0.1 mg/mL protein human liver microsomes (BD Gentest); tissue BD Gentest; host or cells: human liver microsomes
T7 sequence (P10635 whole entry): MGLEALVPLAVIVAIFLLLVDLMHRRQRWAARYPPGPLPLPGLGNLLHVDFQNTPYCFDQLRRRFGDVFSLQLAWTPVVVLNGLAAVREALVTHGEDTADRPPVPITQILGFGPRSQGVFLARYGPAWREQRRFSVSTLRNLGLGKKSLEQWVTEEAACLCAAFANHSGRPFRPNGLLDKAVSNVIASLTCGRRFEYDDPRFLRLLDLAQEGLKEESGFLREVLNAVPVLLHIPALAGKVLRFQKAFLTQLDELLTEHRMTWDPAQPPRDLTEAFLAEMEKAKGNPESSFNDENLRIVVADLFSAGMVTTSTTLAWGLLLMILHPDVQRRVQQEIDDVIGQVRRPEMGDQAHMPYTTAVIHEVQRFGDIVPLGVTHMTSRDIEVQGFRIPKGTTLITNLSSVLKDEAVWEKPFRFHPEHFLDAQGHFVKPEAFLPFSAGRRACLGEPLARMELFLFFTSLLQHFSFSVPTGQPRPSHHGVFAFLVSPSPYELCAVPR
Briefly: Cocktail assay for CYPs in human liver microsomes, dextromethorphan O-demethylation (2D6). The assay is classed as biochemical. To be noted: 5 μM dextromethorphan, 10 min at 37° C. An outline of the steps:
as §1

Molecules are shown by their SMILES. Bounds are passed on as bounds.

T3 sequence (P08684 whole entry): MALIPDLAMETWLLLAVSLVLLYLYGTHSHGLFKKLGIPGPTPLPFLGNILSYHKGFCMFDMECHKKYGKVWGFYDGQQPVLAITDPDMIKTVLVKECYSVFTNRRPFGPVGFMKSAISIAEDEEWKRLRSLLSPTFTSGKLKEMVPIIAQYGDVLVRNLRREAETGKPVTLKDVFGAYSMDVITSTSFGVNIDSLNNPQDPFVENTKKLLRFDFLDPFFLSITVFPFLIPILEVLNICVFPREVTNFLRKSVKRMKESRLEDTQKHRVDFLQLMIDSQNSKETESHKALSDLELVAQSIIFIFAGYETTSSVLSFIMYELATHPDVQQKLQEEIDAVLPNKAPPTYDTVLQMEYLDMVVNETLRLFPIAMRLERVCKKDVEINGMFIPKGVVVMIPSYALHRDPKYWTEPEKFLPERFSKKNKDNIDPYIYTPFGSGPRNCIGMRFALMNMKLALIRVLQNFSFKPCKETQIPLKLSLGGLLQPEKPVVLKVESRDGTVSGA
T2 sequence (P11712 whole entry): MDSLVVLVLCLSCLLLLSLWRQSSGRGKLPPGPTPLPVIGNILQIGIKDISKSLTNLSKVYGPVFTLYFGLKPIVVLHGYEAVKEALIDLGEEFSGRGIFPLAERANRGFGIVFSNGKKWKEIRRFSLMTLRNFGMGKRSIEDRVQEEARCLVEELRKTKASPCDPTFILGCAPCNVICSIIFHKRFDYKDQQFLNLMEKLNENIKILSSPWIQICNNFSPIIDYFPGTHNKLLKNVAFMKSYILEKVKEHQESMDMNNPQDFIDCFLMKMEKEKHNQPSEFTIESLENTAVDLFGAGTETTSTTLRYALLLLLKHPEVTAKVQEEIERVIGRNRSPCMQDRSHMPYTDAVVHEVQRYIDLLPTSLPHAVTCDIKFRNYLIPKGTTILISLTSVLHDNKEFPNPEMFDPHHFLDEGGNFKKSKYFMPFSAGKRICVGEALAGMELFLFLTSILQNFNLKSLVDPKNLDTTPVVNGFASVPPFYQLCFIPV
T6 sequence (P33261 whole entry): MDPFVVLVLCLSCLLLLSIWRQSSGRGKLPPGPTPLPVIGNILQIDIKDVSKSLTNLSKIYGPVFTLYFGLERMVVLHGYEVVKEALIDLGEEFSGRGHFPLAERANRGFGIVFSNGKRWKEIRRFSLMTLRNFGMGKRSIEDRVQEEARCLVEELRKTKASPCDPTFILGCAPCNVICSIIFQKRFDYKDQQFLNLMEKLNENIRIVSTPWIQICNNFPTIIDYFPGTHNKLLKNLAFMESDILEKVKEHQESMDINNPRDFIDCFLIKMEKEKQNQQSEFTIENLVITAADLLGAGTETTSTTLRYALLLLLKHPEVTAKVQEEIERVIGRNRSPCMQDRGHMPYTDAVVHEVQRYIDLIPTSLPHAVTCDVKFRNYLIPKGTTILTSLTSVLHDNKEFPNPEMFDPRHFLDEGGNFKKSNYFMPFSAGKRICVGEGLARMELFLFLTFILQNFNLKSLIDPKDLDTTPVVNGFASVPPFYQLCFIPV

Regarding `C[C@@H](c1ccccc1C1CCCC1)n1cncc1C(=O)N1CCC2NCCO[C@@H]2C1` (some centres unmarked) [Compound 48], the IC50 on CYP1A2 was over 10 µM; against CYP2C9, over 10 µM; on CYP3A4 it was 0.0055 µM; against human CYP11B1 it was 11.3 µM; against human CYP11B2 it was 15.5 µM; on CYP2C19, over 10 µM. Also, the IC50 against CYP2D6 was over 10 µM.
For `C[C@@H](c1ccccc1-c1ccc(F)cc1)n1cncc1C(=O)N1CCC(F)(CN2CCOCC2)CC1` [Compound 49], the IC50 against CYP1A2 was over 10 µM; at CYP2C9, over 10 µM; against CYP3A4, 0.0037 µM; against human CYP11B1, 6.03 µM; on human CYP11B2, 36.3 µM; against CYP2C19, 9.54 µM. Further, at CYP2D6, the half-maximal inhibitory concentration (IC50) was at least 10 µM.
Turning to `C[C@@H](c1ccccc1-c1ccc(F)cc1)n1cncc1C(=O)N1CCC2NC(=O)COC2(C)C1` (some centres unmarked) [Compound 51], the 50% inhibitory concentration (IC50) is over 10 µM against CYP1A2; over 10 µM on CYP2C9; 0.0048 µM against CYP3A4; 20.8 µM at human CYP11B1; over 50 µM on human CYP11B2; over 10 µM on CYP2C19. The half-inhibitory concentration (IC50) at CYP2D6 is over 10 µM.
As for `C[C@@H](c1ccccc1-c1ccc(F)cc1)n1cncc1C(=O)N1CCC[C@H]2OCCN[C@@H]2C1` [Compound 52], the half-inhibitory concentration (IC50) at CYP1A2 was over 10 µM; at CYP2C9, over 10 µM; at CYP3A4 it was 0.0032 µM; on human CYP11B1 it was 3.93 µM; at human CYP11B2, over 50 µM; at CYP2C19, over 10 µM. The same compound had a half-maximal inhibitory concentration (IC50) on CYP2D6 of over 10 µM.
In the case of `C[C@@H](c1ccccc1-c1ccc(F)cc1)n1cncc1C(=O)N1CCC[C@@H]2OCCN[C@H]2C1` [Compound 53], the IC50 was over 10 µM against CYP1A2; over 10 µM at CYP2C9; 0.011 µM against CYP3A4; 16.4 µM against human CYP11B1; over 50 µM against human CYP11B2; over 10 µM at CYP2C19. The IC50 on CYP2D6 was over 10 µM.

By IC50 is commonly meant the concentration at which inhibition is half-maximal.
